In PMC11396129, “Oxindole–benzothiazole hybrids as CDK2 inhibitors and anticancer agents: design, synthesis and biological evaluation” (BMC Chemistry, 2024):

How the values were obtained:
[1] = system: CCRF-CEM; test: NCI 60 panel growth inhibition (SRB), leukemia; format: cell-based, human; settings: for GI%: 10 μM
In short: (§1)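 24 h post-seeding: Tz fixation, drug added at five concentrations. Adherent lines stopped with cold TCA, washed, dried, SRB read. Growth % vs control and Tz; TGI at Ti = Tz.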

[2] = system: HL-60(TB); test: NCI 60 panel growth inhibition (SRB), leukemia; format: cell-based, human; settings: for GI%: HL-60(TB), 10 μM
In short: as §1

[3] = system: K-562; test: NCI 60 panel growth inhibition (SRB), leukemia; format: cell-based, human; settings: for GI%: K-562, 10 μM
In short: as §1

[4] = system: MOLT-4; test: NCI 60 panel growth inhibition (SRB), leukemia; format: cell-based, human; settings: for GI%: MOLT-4, 10 μM
In short: as §1

[5] = system: RPMI-8226; test: NCI 60 panel growth inhibition (SRB), leukemia; format: cell-based, human; settings: for GI%: RPMI-8226, 10 μM
In short: as §1

[6] = system: SR; test: NCI 60 panel growth inhibition (SRB), leukemia; format: cell-based, human; settings: for GI%: 10 μM
In short: as §1

[7] = system: HT29; test: NCI 60 panel growth inhibition (SRB), colon cancer; format: cell-based, human; settings: for GI%: HT29, 10 μM
In short: as §1

[8] = system: SF-268; test: NCI 60 panel growth inhibition (SRB), CNS cancer; format: cell-based, human; settings: for GI%: SF-268, 10 μM
In short: as §1

[9] = system: SF-295; test: NCI 60 panel growth inhibition (SRB), CNS cancer; format: cell-based, human; settings: for GI%: SF-295, 10 μM
In short: as §1

[10] = system: SF-539; test: NCI 60 panel growth inhibition (SRB), CNS cancer; format: cell-based, human; settings: for GI%: SF-539, 10 μM
In short: as §1

[11] = system: SNB-19; test: NCI 60 panel growth inhibition (SRB), CNS cancer; format: cell-based, human; settings: for GI%: SNB-19, 10 μM
In short: as §1

[12] = system: SNB-75; test: NCI 60 panel growth inhibition (SRB), CNS cancer; format: cell-based, human; settings: SNB-75, 10 μM
In short: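 Two-stage NCI process: single-dose screen, then five-concentration testing of selected compounds. Growth relative to time-zero and untreated controls was derived from SRB absorbance, and TGI from the concentration giving Ti = Tz.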

[13] = system: U251; test: NCI 60 panel growth inhibition (SRB), CNS cancer; format: cell-based, human; settings: for GI%: U251, 10 μM
In short: as §1

[14] = system: LOX IMVI; test: NCI 60 panel growth inhibition (SRB), melanoma; format: cell-based, human; settings: for GI%: 10 μM
In short: as §1

[15] = system: M14; test: NCI 60 panel growth inhibition (SRB), melanoma; format: cell-based, human; settings: for GI%: M14, 10 μM
In short: as §1

[16] = system: MALME-3M; test: NCI 60 panel growth inhibition (SRB), melanoma; format: cell-based, human; settings: for GI%: 10 μM
In short: as §1

[17] = system: MDA-MB-435; test: NCI 60 panel growth inhibition (SRB), melanoma; format: cell-based, human; settings: for GI%: MDA-MB-435, 10 μM
In short: as §1

[18] = system: SK-MEL-28; test: NCI 60 panel growth inhibition (SRB), melanoma; format: cell-based, human; settings: for GI%: SK-MEL-28, 10 μM
In short: as §1

[19] = system: SK-MEL-5; test: NCI 60 panel growth inhibition (SRB), melanoma; format: cell-based, human; settings: for GI%: SK-MEL-5, 10 μM
In short: as §1

[20] = system: UACC-257; test: NCI 60 panel growth inhibition (SRB), melanoma; format: cell-based, human; settings: for GI%: UACC-257, 10 μM
In short: as §1

[21] = system: UACC-62; test: NCI 60 panel growth inhibition (SRB), melanoma; format: cell-based, human; settings: for GI%: UACC-62, 10 μM
In short: as §1

[22] = system: IGROV1; test: NCI 60 panel growth inhibition (SRB), ovarian cancer; format: cell-based, human; settings: for GI%: IGROV1, 10 μM
In short: as §1

[23] = system: OVCAR-3; test: as above; format: cell-based, human; settings: for GI%: OVCAR-3, 10 μM
In short: as §1

[24] = system: OVCAR-4; test: as above; format: cell-based, human; settings: for GI%: OVCAR-4, 10 μM
In short: as §1

[25] = system: OVCAR-5; test: as above; format: cell-based, human; settings: for GI%: OVCAR-5, 10 μM
In short: as §1

[26] = system: SK-OV-3; test: as above; format: cell-based, human; settings: for GI%: SK-OV-3, 10 μM
In short: as §1

[27] = target: T1, CDK2 (Homo sapiens, UniProt P24941); test: CDK2 kinase assay (BPS kit, Kinase-Glo Max); format: biochemical; settings: for IC50: mean of two independent experiments ± SD
T1 construct: purchased BPS Biosciences 79599

[28] = system: SK-MEL-2; test: NCI 60 panel growth inhibition (SRB), melanoma; format: cell-based, human; settings: for GI%: SK-MEL-2, 10 μM
In short: as §1

[29] = target: CDK1 (Homo sapiens, UniProt P06493); test: Kinase inhibitory activity on CDK1; format: biochemical; settings: mean of two independent experiments ± SD
Sequence of CDK1 (P06493 whole entry, species assumed): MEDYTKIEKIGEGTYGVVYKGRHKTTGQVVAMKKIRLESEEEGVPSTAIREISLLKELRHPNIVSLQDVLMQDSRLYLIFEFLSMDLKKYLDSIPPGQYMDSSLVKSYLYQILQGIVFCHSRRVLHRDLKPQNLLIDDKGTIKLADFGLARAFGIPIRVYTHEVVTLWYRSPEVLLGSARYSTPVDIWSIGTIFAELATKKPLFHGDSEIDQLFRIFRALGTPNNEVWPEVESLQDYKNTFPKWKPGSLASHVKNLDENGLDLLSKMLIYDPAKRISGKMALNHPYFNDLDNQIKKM
Sequence of CDK1 (P14635 whole entry partner, species assumed): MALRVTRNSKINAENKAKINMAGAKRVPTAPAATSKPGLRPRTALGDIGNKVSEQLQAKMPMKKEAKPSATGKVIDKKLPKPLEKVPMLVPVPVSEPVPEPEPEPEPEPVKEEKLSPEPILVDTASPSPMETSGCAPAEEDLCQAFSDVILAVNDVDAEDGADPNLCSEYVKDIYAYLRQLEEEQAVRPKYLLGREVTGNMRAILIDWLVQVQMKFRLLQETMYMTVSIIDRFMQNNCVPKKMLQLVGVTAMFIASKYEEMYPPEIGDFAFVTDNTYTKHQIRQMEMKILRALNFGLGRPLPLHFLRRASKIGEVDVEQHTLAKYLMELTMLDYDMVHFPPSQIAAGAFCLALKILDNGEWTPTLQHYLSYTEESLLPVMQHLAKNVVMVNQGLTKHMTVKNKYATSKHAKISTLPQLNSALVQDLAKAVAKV

[30] = target: CDK5 (Homo sapiens, UniProt Q00535); test: Kinase inhibitory activity on CDK5; format: biochemical; settings: mean of two independent experiments ± SD
Sequence of CDK5 (Q00535 whole entry, species assumed): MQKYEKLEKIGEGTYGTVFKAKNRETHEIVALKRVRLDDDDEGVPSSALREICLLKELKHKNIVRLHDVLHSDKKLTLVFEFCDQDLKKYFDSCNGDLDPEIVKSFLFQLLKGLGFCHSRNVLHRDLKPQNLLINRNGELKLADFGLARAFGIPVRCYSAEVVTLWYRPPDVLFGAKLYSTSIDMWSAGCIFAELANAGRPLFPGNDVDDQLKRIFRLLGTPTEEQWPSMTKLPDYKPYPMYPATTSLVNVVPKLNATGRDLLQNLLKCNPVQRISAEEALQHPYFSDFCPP
Sequence of CDK5 (Q15078 99-307 partner limits assumed, species assumed): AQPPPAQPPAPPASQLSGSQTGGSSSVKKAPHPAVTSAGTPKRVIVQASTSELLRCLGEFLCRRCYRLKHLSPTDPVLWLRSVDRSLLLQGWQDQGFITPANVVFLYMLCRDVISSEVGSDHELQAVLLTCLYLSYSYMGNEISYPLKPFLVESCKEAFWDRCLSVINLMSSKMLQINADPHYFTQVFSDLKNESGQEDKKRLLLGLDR

[31] = target: VEGFR-2 (Homo sapiens, UniProt P35968); test: Kinase inhibitory activity on VEGFR-2; format: biochemical; settings: mean of two independent experiments ± SD
Sequence of VEGFR-2 (P35968 20-1356, species assumed): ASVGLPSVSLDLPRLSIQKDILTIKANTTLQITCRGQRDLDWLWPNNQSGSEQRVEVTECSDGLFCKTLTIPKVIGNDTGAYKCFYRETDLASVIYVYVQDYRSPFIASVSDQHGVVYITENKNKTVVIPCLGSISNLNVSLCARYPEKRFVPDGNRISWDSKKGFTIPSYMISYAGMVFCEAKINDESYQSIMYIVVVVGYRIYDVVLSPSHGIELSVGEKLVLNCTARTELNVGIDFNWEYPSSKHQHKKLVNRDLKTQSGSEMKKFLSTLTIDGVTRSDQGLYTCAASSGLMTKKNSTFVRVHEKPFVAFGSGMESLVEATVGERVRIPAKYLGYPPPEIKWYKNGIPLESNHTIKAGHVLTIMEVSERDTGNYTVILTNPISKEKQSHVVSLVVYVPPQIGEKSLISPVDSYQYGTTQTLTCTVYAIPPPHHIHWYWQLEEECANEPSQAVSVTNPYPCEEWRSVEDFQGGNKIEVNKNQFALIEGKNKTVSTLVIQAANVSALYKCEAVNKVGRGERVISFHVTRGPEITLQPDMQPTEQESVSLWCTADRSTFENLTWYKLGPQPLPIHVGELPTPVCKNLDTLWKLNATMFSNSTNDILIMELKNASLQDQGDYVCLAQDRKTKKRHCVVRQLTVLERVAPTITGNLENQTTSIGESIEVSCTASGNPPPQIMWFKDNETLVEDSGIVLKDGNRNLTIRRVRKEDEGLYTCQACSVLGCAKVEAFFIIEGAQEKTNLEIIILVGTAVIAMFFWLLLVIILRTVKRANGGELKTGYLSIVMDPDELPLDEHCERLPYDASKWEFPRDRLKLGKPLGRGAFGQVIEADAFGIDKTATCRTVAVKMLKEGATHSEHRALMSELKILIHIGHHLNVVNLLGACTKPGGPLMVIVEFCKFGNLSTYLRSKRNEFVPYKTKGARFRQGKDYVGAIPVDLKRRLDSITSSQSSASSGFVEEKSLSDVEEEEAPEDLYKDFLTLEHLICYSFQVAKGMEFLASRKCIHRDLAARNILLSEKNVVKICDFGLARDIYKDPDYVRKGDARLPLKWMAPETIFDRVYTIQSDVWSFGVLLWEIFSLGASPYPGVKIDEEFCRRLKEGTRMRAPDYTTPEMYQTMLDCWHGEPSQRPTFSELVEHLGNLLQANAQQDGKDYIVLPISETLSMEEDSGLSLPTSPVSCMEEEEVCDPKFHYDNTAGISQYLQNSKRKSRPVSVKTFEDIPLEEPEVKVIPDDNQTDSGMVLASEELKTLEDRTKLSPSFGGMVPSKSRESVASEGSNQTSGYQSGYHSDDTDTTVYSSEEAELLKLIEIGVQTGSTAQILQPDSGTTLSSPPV

SMILES: O=C(COc1ccccc1-c1nc2ccccc2s1)NN=C1C(=O)Nc2ccc(Br)cc21 [Compound 9f, 2-(2-(Benzo[d]thiazol-2-yl)phenoxy)-N′-(5-bromo-2-oxoindolin-3-ylidene)acetohydrazide]
- GI% [1]: 21.91%
- GI% [2]: 29.39%
- GI% [3]: 22.52%
- GI% [4]: 36.74%
- GI% [5]: 29.01%
- GI% [6]: 43.03%
- GI% [7]: – (GI% < 5%)
- GI% [8]: 45.84%
- GI% [9]: 32.61%
- GI% [10]: 110.59%
- GI% [11]: 81.08%
- GI% [12]: 84.86%
- GI% [13]: 86.92%
- GI% [14]: 59.05%
- GI% [15]: 8.00%
- GI% [16]: 55.98%
- GI% [17]: 14.63%
- GI% [18]: – (GI% < 5%)
- GI% [19]: 43.95%
- GI% [20]: 13.04%
- GI% [21]: 25.55%
- GI% [22]: 42.62%
- GI% [23]: 81.63%
- GI% [24]: 90.58%
- GI% [25]: – (GI% < 5%)
- GI% [26]: 17.03%
- IC50 [27]: 0.2 ± 0.035 µM

SMILES: COc1cccc(-c2nc3ccccc3s2)c1OCC(=O)NN=C1C(=O)Nc2ccc(Br)cc21 [Compound 9l, 2-(2-(Benzo[d]thiazol-2-yl)-6-methoxyphenoxy)-N′-(5-bromo-2-oxoindolin-3-ylidene)acetohydrazide]
- GI% [1]: 15.16%
- GI% [2]: – (GI% < 5%)
- GI% [3]: 18.70%
- GI% [4]: 36.40%
- GI% [5]: 25.41%
- GI% [6]: 16.68%
- GI% [7]: 9.08%
- GI% [8]: 8.60%
- GI% [9]: 33.14%
- GI% [10]: 9.75%
- GI% [11]: – (GI% < 5%)
- GI% [12]: 10.42%
- GI% [13]: – (GI% < 5%)
- GI% [14]: 19.74%
- GI% [15]: – (GI% < 5%)
- GI% [16]: 6.30%
- GI% [17]: 5.27%
- GI% [18]: – (GI% < 5%)
- GI% [28]: 9.60%
- GI% [19]: 19.70%
- GI% [20]: – (GI% < 5%)
- GI% [21]: 35.62%
- GI% [22]: 11.35%
- GI% [23]: – (GI% < 5%)
- GI% [24]: 11.40%
- GI% [25]: – (GI% < 5%)
- GI% [26]: – (GI% < 5%)

SMILES: COc1ccc2c(c1)C(=NNC(=O)COc1cc(-c3nc4ccccc4s3)ccc1OC)C(=O)N2 [Compound 9o, 2-(5-(Benzo[d]thiazol-2-yl)-2-methoxyphenoxy)-N′-(5-methoxy-2-oxoindolin-3-ylidene)acetohydrazide]
- GI% [1]: 57.64%
- GI50 ([1]; Homo sapiens, five dose): 6.08 µM
- GI% [2]: 7.99%
- GI50 ([2]; Homo sapiens, HL-60 (TB), five dose): > 100 µM
- GI50 ([3]; Homo sapiens, K562, K-562, five dose): 3.75 µM
- GI% [3]: 64.36%
- GI50 ([4]; Homo sapiens, MOLT-4, five dose): 5.05 µM
- GI% [4]: 36.32%
- GI50 ([5]; Homo sapiens, RPMI-8226, five dose): 61.4 µM
- GI% [5]: 66.93%
- GI% [6]: 35.47%
- GI50 ([6]; Homo sapiens, five dose): 20.9 µM
- GI% [7]: 20.32%
- GI50 ([7]; Homo sapiens, HT-29, HT29, five dose): 26.8 µM
- GI50 ([8]; Homo sapiens, SF-268, five dose): > 100 µM
- GI% [8]: 51.91%
- GI50 ([9]; Homo sapiens, SF-295, five dose): 11.8 µM
- GI% [9]: 31.59%
- GI50 ([10]; Homo sapiens, SF-539, five dose): 39.9 µM
- GI% [10]: 12.44%
- GI50 ([11]; Homo sapiens, SNB-19, five dose): 5.72 µM
- GI% [11]: 49.50%
- GI% [12]: – (GI% < 5%)
- GI50 ([13]; Homo sapiens, U-251, U251, five dose): 2.02 µM
- GI% [13]: 143.46%
- GI% [14]: 160.95%
- GI50 ([14]; Homo sapiens, five dose): 4.09 µM
- GI50 ([15]; Homo sapiens, M14, five dose): 47.4 µM
- GI% [15]: 39.13%
- GI% [16]: 35.23%
- GI50 ([16]; Homo sapiens, five dose): 2.28 µM
- GI50 ([17]; Homo sapiens, MDA-MB-435, five dose): 20.6 µM
- GI% [17]: 96.57%
- GI50 ([18]; Homo sapiens, SK-MEL-28, five dose): > 100 µM
- GI% [18]: 37.85%
- GI50 ([28]; Homo sapiens, SK-MEL-2, five dose): > 100 µM
- GI% [28]: 26.06%
- GI50 ([19]; Homo sapiens, SK-MEL-5, five dose): 41.5 µM
- GI% [19]: 24.21%
- GI50 ([20]; Homo sapiens, UACC-257, five dose): > 100 µM
- GI% [20]: – (GI% < 5%)
- GI50 ([21]; Homo sapiens, UACC-62, five dose): 59.3 µM
- GI% [21]: – (GI% < 5%)
- GI50 ([22]; Homo sapiens, IGROV-1, IGROV1, five dose): 2.22 µM
- GI% [22]: 18.68%
- GI50 ([23]; Homo sapiens, OVCAR-3, five dose): 2.49 µM
- GI% [23]: 94.12%
- GI50 ([24]; Homo sapiens, OVCAR-4, five dose): > 100 µM
- GI% [24]: 68.35%
- GI50 ([25]; Homo sapiens, OVCAR-5, five dose): > 100 µM
- GI% [25]: 9.28%
- GI50 ([26]; Homo sapiens, SK-OV-3, five dose): 48.9 µM
- kinase selectivity ([27]; from IC50 of Tables 4 and 5): higher selectivity toward CDK2 and CDK5 over CDK1, VEGFR-2 and FGFR-1
- IC50 [27]: 0.21 ± 0.015 µM
- IC50 [29]: 1.19 ± 0.1 µM
- IC50 [30]: 0.34 ± 0.02 µM
- IC50 [31]: > 10 µM
